Patent US11000033B2, “Ketone or oxime compound, and herbicide” (NISSAN CHEMICAL CORPORATION, priority 2014, dated 2021)

Columns and labels:
Type in all cases: in vivo
Setaria viridis = assay: Test Example 5: herbicidal effect by foliage application, plastic box (symbol G); details: 320 g/ha, 3 weeks after application
Summary of the method: (§1)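 Greenhouse foliar test: seedlings at 14 days, grown 25° C. to 30° C. in sterilized diluvial soil; compound applied as an aqueous dilution of an emulsion; response read 3 weeks after spraying.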

Abutilon theophrasti = assay: Test Example 5: herbicidal effect by foliage application, plastic box (symbol M); details: 320 g/ha, 3 weeks after application
Summary of the method: as §1

[1] = tested on: Echinochloa crus-galli var. crus-galli; assay: Test Example 4: herbicidal effect by soil treatment (symbol H); details: for H: Echinochloa crus-galli var. crus-galli, herbicidal effect grade: 320 g/ha
Summary of the method: (§2)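 Seeds were sown in sterilized diluvial soil, covered with about 1.5 cm of soil, and the soil surface was sprayed with a water-diluted emulsion of the compound at a predetermined rate. Plants grew in a greenhouse at 25° C. to 30° C.; effects were scored visually 3 weeks after application.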

Chenopodium album [2] = assay: Test Example 5: herbicidal effect by foliage application, plastic box (symbol O); details: 320 g/ha, 3 weeks after application
Summary of the method: as §1

rice plant = assay: Test Example 5: effect on crop by foliage application, plastic box (symbol b); details: 320 g/ha, 3 weeks after application
Summary of the method: (§3)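 In a plastic box 7 cm deep filled with sterilized diluvial soil, seeds of crops and weeds such as Digitaria ciliaris, Avena fatua and Amaranthus retroflexus are sown in spots and covered with about 1.5 cm of soil before greenhouse growth at 25–30° C.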

[3] = tested on: Echinochloa oryzacola Vasing.; assay: Test Example 2: herbicidal activity, application during weed generation in submerged conditions (symbol A); details: Table 23; application herbicide amount 320 g/ha; grade 0-5 by criteria of Test Example 1
Summary of the method: (§4)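 Submerged alluvial soil (4 cm) sown with mixed seed; greenhouse 25–30° C. 1–2 leaf: diluted emulsion onto water surface, preset dose. Visual score, 3 wk.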

[4] = tested on: Echinochloa crus-galli var. crus-galli; assay: Test Example 3: herbicidal effect by foliage application, Wagner pot (symbol H); details: application herbicide amount 320 g/ha
Summary of the method: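 Steps: fill pot with alluvial soil; add water to 0.1–0.5 cm depth; sow weed and rice seed; grow 14 days at 25–30 °C; spray diluted emulsion over the leaves; rate effect after 3 weeks.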

Stellaria media = assay: Test Example 5: herbicidal effect by foliage application, plastic box (symbol P); details: 320 g/ha, 3 weeks after application
Summary of the method: as §1

beet [5] = assay: Test Example 5: effect on crop by foliage application, plastic box (symbol f); details: 320 g/ha, 3 weeks after application
Summary of the method: as §3

Scirpus juncoides = assay: Test Example 2: herbicidal activity, application during weed generation in submerged conditions (symbol B); details: Table 23; application herbicide amount 320 g/ha; grade 0-5 by criteria of Test Example 1
Summary of the method: as §4

Chenopodium album [6] = assay: Test Example 4: herbicidal effect by soil treatment (symbol O); details: for O: Chenopodium album, herbicidal effect grade: 320 g/ha
Summary of the method: as §2

Amaranthus retroflexus [7] = assay: Test Example 5: herbicidal effect by foliage application, plastic box (symbol N); details: 320 g/ha, 3 weeks after application
Summary of the method: as §1

Lolium multiflorum Lam. = assay: Test Example 4: herbicidal effect by soil treatment (symbol K); details: for K: Lolium multiflorum Lam., herbicidal effect grade: 320 g/ha
Summary of the method: as §2

Alopecurus myosuroides = assay: Test Example 4: herbicidal effect by soil treatment (symbol J); details: for J: Alopecurus myosuroides, herbicidal effect grade: 320 g/ha
Summary of the method: as §2

Veronica persica = assay: Test Example 5: herbicidal effect by foliage application, plastic box (symbol R); details: 320 g/ha, 3 weeks after application
Summary of the method: as §1

wheat = assay: Test Example 4: effect on crop by soil treatment (symbol e); details: for e: wheat, effect grade on crop: 320 g/ha
Summary of the method: (§5)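 Sterilized diluvial soil, spot sowing, ~1.5 cm soil cover; greenhouse 25–30° C.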

beet [8] = assay: Test Example 4: effect on crop by soil treatment (symbol f); details: for f: beet, effect grade on crop: 320 g/ha
Summary of the method: as §5

Amaranthus retroflexus [9] = assay: Test Example 4: herbicidal effect by soil treatment (symbol N); details: for N: Amaranthus retroflexus, herbicidal effect grade: 320 g/ha
Summary of the method: as §2

soybean = assay: Test Example 4: effect on crop by soil treatment (symbol d); details: for d: soybean, effect grade on crop: 320 g/ha
Summary of the method: as §5

[10] = application herbicide amount 320 g/ha

Row | Structure (SMILES) | Herbicidal effect grade, A: Echinochloa oryzacola Vasing. [3] | Herbicidal effect grade, B: Scirpus juncoides (Scirpus juncoides) | G: Setaria viridis, herbicidal effect (criteria 0-5) (Setaria viridis) | M: Abutilon theophrasti, herbicidal effect (criteria 0-5) (Abutilon theophrasti) | H: Echinochloa crus-galli var. crus-galli, herbicidal effect grade [1] | O: Chenopodium album, herbicidal effect (criteria 0-5) (Chenopodium album [2]) | b: directly sowed rice plant, effect on crop (criteria 0-5) (rice plant) | herbicidal effect on H (Echinochloa crus-galli var. crus-galli), grade 0-5 [4] | P: Stellaria media, herbicidal effect (criteria 0-5) (Stellaria media) | f: beet, effect on crop (criteria 0-5) (beet [5]) | O: Chenopodium album, herbicidal effect grade (Chenopodium album [6]) | N: Amaranthus retroflexus, herbicidal effect (criteria 0-5) (Amaranthus retroflexus [7]) | K: Lolium multiflorum Lam., herbicidal effect grade (Lolium multiflorum Lam.) | J: Alopecurus myosuroides, herbicidal effect grade (Alopecurus myosuroides) | R: Veronica persica, herbicidal effect (criteria 0-5) (Veronica persica) | e: wheat, effect grade on crop (wheat) | f: beet, effect grade on crop (beet [8]) | N: Amaranthus retroflexus, herbicidal effect grade (Amaranthus retroflexus [9]) | d: soybean, effect grade on crop (soybean) | further results
1 | CON=C(CC1CC(O)=C(c2c(C)cc(-c3ccccc3)cc2C)C1=O)C1CC1 (mixture of isomers) [9-028] | 5 (Herbicidal ratio of 90% or more (almost completely withered)) | 4 (Herbicidal ratio of 70% or higher and lower than 90%) | – | – | – | – | – | – | – | – | – | – | – | – | – | – | – | – | – | G: Setaria viridis, herbicidal effect grade (Setaria viridis): 5 (Herbicidal ratio of 90% or more (almost completely withered)); M: Abutilon theophrasti, herbicidal effect grade (Abutilon theophrasti): 1 (Herbicidal ratio of 5% or higher and lower than 20%); Herbicidal effect grade, H: Echinochloa crus-galli var. crus-galli [1, 10]: 5 (Herbicidal ratio of 90% or more (almost completely withered)); O: Chenopodium album, herbicidal effect grade (Chenopodium album [2]): 2 (Herbicidal ratio of 20% or higher and lower than 40%); b: directly sowed rice plant, effect on crop grade (rice plant): 5 (Herbicidal ratio of 90% or more (almost completely withered)); H (Echinochloa crus-galli var. crus-galli) herbicidal effect grade ([4]; Table 24): 5 (Herbicidal ratio of 90% or more (almost completely withered)); P: Stellaria media, herbicidal effect grade (Stellaria media): 3 (Herbicidal ratio of 40% or higher and lower than 70%); f: beet, effect on crop grade (beet [5]): 3 (Herbicidal ratio of 40% or higher and lower than 70%); Herbicidal effect grade, O: Chenopodium album (Chenopodium album [6]; [10]): 0 (Herbicidal ratio of 5% or lower (almost no effect)); N: Amaranthus retroflexus, herbicidal effect grade (Amaranthus retroflexus [7]): 1 (Herbicidal ratio of 5% or higher and lower than 20%); Herbicidal effect grade, K: Lolium multiflorum Lam. (Lolium multiflorum Lam.; [10]): 5 (Herbicidal ratio of 90% or more (almost completely withered)); Herbicidal effect grade, J: Alopecurus myosuroides (Alopecurus myosuroides; [10]): 5 (Herbicidal ratio of 90% or more (almost completely withered)); R: Veronica persica, herbicidal effect grade (Veronica persica): 4 (Herbicidal ratio of 70% or higher and lower than 90%); Effect on crop grade, e: wheat (wheat; [10]): 3 (Herbicidal ratio of 40% or higher and lower than 70%); Effect on crop grade, f: beet (beet [8]; [10]): 0 (Herbicidal ratio of 5% or lower (almost no effect)); Herbicidal effect grade, N: Amaranthus retroflexus (Amaranthus retroflexus [9]; [10]): 0 (Herbicidal ratio of 5% or lower (almost no effect)); Effect on crop grade, d: soybean (soybean; [10]): 0 (Herbicidal ratio of 5% or lower (almost no effect))
2 | CC(CC1CC(O)=C(c2c(C)cc(C)cc2C)C1=O)=NOCC(C)Br (stereo not shown) [1-135] | 5 (Herbicidal ratio of 90% or more (almost completely withered)) | 4 (Herbicidal ratio of 70% or higher and lower than 90%) | 5 (Herbicidal ratio of 90% or more (almost completely withered)) | 3 (Herbicidal ratio of 40% or higher and lower than 70%) | 5 (Herbicidal ratio of 90% or more (almost completely withered)) | 5 (Herbicidal ratio of 90% or more (almost completely withered)) | 5 (Herbicidal ratio of 90% or more (almost completely withered)) | 5 (Herbicidal ratio of 90% or more (almost completely withered)) | 1 (Herbicidal ratio of 5% or higher and lower than 20%) | 0 (Herbicidal ratio of 5% or lower (almost no effect)) | 0 (Herbicidal ratio of 5% or lower (almost no effect)) | 0 (Herbicidal ratio of 5% or lower (almost no effect)) | 5 (Herbicidal ratio of 90% or more (almost completely withered)) | 5 (Herbicidal ratio of 90% or more (almost completely withered)) | 3 (Herbicidal ratio of 40% or higher and lower than 70%) | 0 (Herbicidal ratio of 5% or lower (almost no effect)) | 0 (Herbicidal ratio of 5% or lower (almost no effect)) | 0 (Herbicidal ratio of 5% or lower (almost no effect)) | 0 (Herbicidal ratio of 5% or lower (almost no effect)) | –
3 | CC(CC1CC(O)=C(c2c(C)cc(C)cc2C)C1=O)=NOCc1ccc(C(F)(F)F)cc1 (stereo not shown) [1-138] | 3 (Herbicidal ratio of 40% or higher and lower than 70%) | 4 (Herbicidal ratio of 70% or higher and lower than 90%) | 5 (Herbicidal ratio of 90% or more (almost completely withered)) | 3 (Herbicidal ratio of 40% or higher and lower than 70%) | 5 (Herbicidal ratio of 90% or more (almost completely withered)) | 0 (Herbicidal ratio of 5% or lower (almost no effect)) | 5 (Herbicidal ratio of 90% or more (almost completely withered)) | 3 (Herbicidal ratio of 40% or higher and lower than 70%) | 1 (Herbicidal ratio of 5% or higher and lower than 20%) | 0 (Herbicidal ratio of 5% or lower (almost no effect)) | 0 (Herbicidal ratio of 5% or lower (almost no effect)) | 0 (Herbicidal ratio of 5% or lower (almost no effect)) | 5 (Herbicidal ratio of 90% or more (almost completely withered)) | 5 (Herbicidal ratio of 90% or more (almost completely withered)) | 3 (Herbicidal ratio of 40% or higher and lower than 70%) | 0 (Herbicidal ratio of 5% or lower (almost no effect)) | 0 (Herbicidal ratio of 5% or lower (almost no effect)) | 0 (Herbicidal ratio of 5% or lower (almost no effect)) | 0 (Herbicidal ratio of 5% or lower (almost no effect)) | –
4 | CCC(Oc1ccc2ncc(Br)cc2c1)C(=O)OC1=C(c2c(C)cc(C)cc2C)C(=O)C(CC(C)=NOC)C1 (stereo not shown) [1-140] | 5 (Herbicidal ratio of 90% or more (almost completely withered)) | 5 (Herbicidal ratio of 90% or more (almost completely withered)) | 5 (Herbicidal ratio of 90% or more (almost completely withered)) | 4 (Herbicidal ratio of 70% or higher and lower than 90%) | 5 (Herbicidal ratio of 90% or more (almost completely withered)) | 2 (Herbicidal ratio of 20% or higher and lower than 40%) | 5 (Herbicidal ratio of 90% or more (almost completely withered)) | 5 (Herbicidal ratio of 90% or more (almost completely withered)) | 3 (Herbicidal ratio of 40% or higher and lower than 70%) | 3 (Herbicidal ratio of 40% or higher and lower than 70%) | 0 (Herbicidal ratio of 5% or lower (almost no effect)) | 3 (Herbicidal ratio of 40% or higher and lower than 70%) | 5 (Herbicidal ratio of 90% or more (almost completely withered)) | 5 (Herbicidal ratio of 90% or more (almost completely withered)) | 3 (Herbicidal ratio of 40% or higher and lower than 70%) | 5 (Herbicidal ratio of 90% or more (almost completely withered)) | 0 (Herbicidal ratio of 5% or lower (almost no effect)) | 5 (Herbicidal ratio of 90% or more (almost completely withered)) | 1 (Herbicidal ratio of 5% or higher and lower than 20%) | –
